Experimental data published in patent publication US6355785B1, “Guanosine-rich oligonucleotide integrase inhibitors” (Aronex Pharmaceuticals, Inc., priority 1993, dated 2002).
Values joined by “and” are separate entries in the source; they are usually repeats but may differ in a detail not shown here. Equal entries are not always repeated. Where two headings read alike, the source gives them in different places.

Assays:
FIV integrase = target: T1, FIV integrase (Feline immunodeficiency virus, UniProt P16088); assay: FIV integrase 3′-processing assay; assay type: biochemical
T1 construct: Purified recombinant wild-type FIV and SIV integrases were generous gifts; purchased gift of Dr. S. Chow (UCLA) (not bought)

[1] = tested on: Vesicular Stomatitis virus
[2] = design: species or system cynomolgus monkeys; details: cynomolgus monkey, in vivo
Experimental: AR177 plasma HPLC analysis. Blood was taken for plasma analysis of AR177 just prior to, and at 5, 30 and 240 minutes following administration of doses 1 and 12. The plasma fraction was obtained by low speed centrifugation of blood, and stored at −20° C. until analyzed for the AR177 concentration. Plasma AR177 concentrations were assayed using an anion-exchange HPLC method on a Waters HPLC system with a 626 pump, 996 photodiode array detector, 717 autosampler and Millennium system software controlled by an NEC Image 466 computer. Buffer A was 0.1 M Tris base, 20% methanol, pH 12, and Buffer B was 0.1 M Tris base, 1.0 M NaBr, pH12. anion-exchange column tGen-Pak Fax column) was equilibrated at 80% buffer A/20% buffer B for 30 minutes before each HPLC run. Fifty microliters of plasma were analyzed per run. The elusion conditions were: a) five-minute isocratic run at 80% A/20% B, during which the majority of the plasma proteins eluted, b) 30-minute linear gradient to 30% A/70% B during which the AR177 eluted, c) five-minute isocratic run at 30% A/70% B. d) one minute linear gradient to 100% B. e) two- minute run at 100% B for initial column cleanup, and fl two-minute linear gradient to 70% A/30% B for the initial step in the clean-up method for HPLC column clean-up. […]

[3] = target: T2, recombinant RT (HIV-1BH10) (Human immunodeficiency virus type 1 group M subtype B, UniProt P03366); assay: Reverse transcriptase enzyme inhibition assays; assay type: biochemical
T2 construct: Purified recombinant RT (HIV-1BH10) was obtained from the University of Alabama; purchased University of Alabama, Center for AIDS research (obtained from)

[4] = design: species or system cynomolgus monkeys; details: cynomolgus monkey, in vivo; remark: listed apart in the source
Experimental: Serum chemistry parameters. Serum chemistry was determined pre-study, on day 24 (one day after the 12th dose), and on day 37 in the recovery monkeys. The following were determined sodium, potassium, chloride, carbon dioxide, total bilirubin, direct bilirubin, indirect bilirubin alkaline phosphatase, lactate dehydrogenase, aspartate aminotransferase, alanine aminotransferase, gammaglutamyltransferase, calcium, phosphorus, glucose, urea nitrogen, creatinine, uric acid total protein, albumin, globulin, cholesterol and triglycerides. Serum chemistry was determined at Sierra Nevada Laboratories (Reno, Nev.).

HIV-1 = details: 3.0 mg/kg every other day, 14-day treatment, three patients
HIV-1DV = assay: HIV-1 p24 production in SUP T1 cells; assay type: cell-based; details: Human immunodeficiency virus 1, 96 h; SUP T1, HIV-1DV, four days

## 5′-gtggtgggtgggtgggt-3′ (GTGGTGGGTGGGTGGGT; phosphorothioate termini, further chemistry not given here) [T30177, pPT version of parent compound I100-15, 17 mer]
FIV integrase
  IC50: 0.175 µM
HSV-2 (G); HSV-2 (G)
  IC50 virus-induced cytopathogenicity: >200 µg/mL
HSV-2 (G); HSV-2 (G) assay
  MCC minimum concentration altering normal cell morphology: 400 μg/mL
[1]; Vesicular Stomatitis virus
  IC50 virus-induced cytopathogenicity: >200 µg/mL
[1]; Vesicular Stomatitis virus assay
  MCC minimum concentration altering normal cell morphology: 400 μg/mL
[2]
  metabolites (n−1, n−2) in plasma: No metabolites
[3]; depending upon the template, read-out: 50% inhibitory value, viral reverse transcriptase
  IC50: 1 to 10 µM
[3]; template gapped duplex DNA, duplicate experiments, read-out: IC50 recombinant HIV-1 RT
  IC50: > 5 µM and 8 µM and 10 µM
[4]
  serum chemistry or urinalysis parameters: no treatment-related changes

## 5′-gtggtgggtgggtgggt-3′ [T30177] (GTGGTGGGTGGGTGGGT; phosphorothioate termini, further chemistry not given here)
HIV-1
  viral load (plasma HIV-1 RNA): viral load was significantly reduced

## Cc1cn([C@H]2C[C@H](N=[N+]=[N-])[C@@H](CO)O2)c(=O)[nH]c1=O [AZT, 3′-azido-3′-deoxythymidine]
HIV-1DV
  IC50: 0.4 µM
